Values quoted from earlier work in patent US20110250274A1, “ESTRIOL FORMULATIONS” (priority 2008, published 2011).

Columns and labels:
[1] = intravaginal route, avoiding enterohepatic circulation
[2] = compared with the other main human estrogens
[3] = oral administration

Compound: C[C@]12CC[C@@H]3c4ccc(O)cc4CC[C@H]3[C@@H]1C[C@@H](O)[C@@H]2O [Estriol, estra-1,3,5(10)-triene-3,16a,17β-triol]
- plasma levels of free estriol [1]: 20%
- mitogenic activity [2]: no mitogenic activity
- share of the administered oral dose rapidly glucuro-conjugated by the liver [3]: ~90%
- share of the oral dose administered that reaches the systemic circulation [3]: 1-2%
